# In patent US20070059265A1, “Benzylidene-1,3-thiazolidine-2,4-dione compounds for stimulating or inducing the growth and/or for reducing the loss and/or for increasing the density of keratin fibers” (L'OREAL, priority 2005, published 2007):
# Target: T1, type-1 15-PGDH (Homo sapiens, UniProt P15428)
# T1 construct: made in house
# T1 sequence (P15428 1-266): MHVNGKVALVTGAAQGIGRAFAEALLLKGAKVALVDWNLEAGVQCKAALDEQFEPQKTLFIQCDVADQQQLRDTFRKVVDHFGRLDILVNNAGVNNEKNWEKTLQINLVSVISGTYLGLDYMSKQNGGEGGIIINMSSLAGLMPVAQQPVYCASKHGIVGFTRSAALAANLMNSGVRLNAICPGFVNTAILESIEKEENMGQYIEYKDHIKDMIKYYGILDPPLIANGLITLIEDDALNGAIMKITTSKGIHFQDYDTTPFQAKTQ
# Assay: Test on type-1 15-PGDH (spectrophotometric, 340 nm, PGE2 and β-NAD as substrates)
# Format: biochemical
# Conditions: 37° C.; for IC50: pH 7.4 Tris buffer, 50 μM Prostaglandin E2, 1.5 mM β-NAD
# Protocol: The enzyme 15-PGDH is obtained as described in patent application FR 02/05067 filed in the name of L'Oréal, as a suspension in a medium adjusted to a concentration of 0.3 mg/mL and then blocked at −80° C. For the purposes of the test, this suspension is thawed and stored in ice.
# In parallel, a 100 mM, pH 7.4 Tris buffer containing 0.1 mM of dithiothreitol (D5545, Sigma-Aldrich, L'isle D'Abeau Chesne, BP 701, 38297, Saint Quentin Fallavier), 1.5 mM of β-NAD (N6522, Sigma-Aldrich, L'isle D'Abeau Chesne, BP 701, 38297, Saint Quentin Fallavier), and 50 μM of Prostaglandin E2 (P4172, Sigma-Aldrich, L'isle D'Abeau Chesne, BP 701, 38297, Saint Quentin Fallavier) is prepared.
# 0.965 ml of this buffer (brought to 37° C. beforehand) is introduced into the cuvette of a spectrophotometer (Perkin-Elmer, Lambda 2) thermostatically maintained at 37° C., the measuring wavelength of which is set at 340 nm. 0.035 mL of enzymatic suspension at 37° C. is introduced into the cuvette concomitantly with the recording (corresponding to an increase in the optical density at 340 nm). The maximum reaction rate is recorded.
"inhibition at 100 µM (at 100 μM of compound, pH 7.4, read-out: % inhibition of the enzymatic activity of 15-PGDH) [%]",IC50 [nM],SMILES
48,,O=C1NC(=O)/C(=C/c2ccccc2Oc2ccc(F)cc2)S1 [Compound 6]
,1550,O=C1NC(=O)/C(=C/c2ccccc2Oc2ccc(Br)cc2F)S1 [Compound 10]
,200,CC(C)(C)c1ccc(Oc2cccc(/C=C3\SC(=O)NC3=O)c2)cc1 [Compound 16]
